Structures can show the parent of a compound that is named as a salt.
How the values were obtained:
AR2 cells (HepG2-AR2) = experiment: Alamar Blue (resazurin) post hoc cell viability / cytotoxicity assay in AR2 cells; conditions: spid Viability, sheet antagonist_fits; for hill_tp (Hill model top): 0 where win_model is Constant
Method: For antagonist mode and cytotoxicity data, well-level normalized response (resp) was calculated as: resp=100 * RLU−bval/pval−bval where pval is the median RLU value of the MEC positive control wells (minimum four wells).

human AR [1] = target: T1, human AR (Homo sapiens, UniProt P10275); experiment: AR2 assay, agonist mode: ligand-dependent AR homodimerization (NanoBiT luciferase complementation) in stable HepG2-AR2 cells; assay type: cell-based; conditions: sheet agonist_fits; maximum median response;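 also: Log2 fold change of luminescence over DMSO vehicle wells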
T1 sequence (P10275 1-920) 1: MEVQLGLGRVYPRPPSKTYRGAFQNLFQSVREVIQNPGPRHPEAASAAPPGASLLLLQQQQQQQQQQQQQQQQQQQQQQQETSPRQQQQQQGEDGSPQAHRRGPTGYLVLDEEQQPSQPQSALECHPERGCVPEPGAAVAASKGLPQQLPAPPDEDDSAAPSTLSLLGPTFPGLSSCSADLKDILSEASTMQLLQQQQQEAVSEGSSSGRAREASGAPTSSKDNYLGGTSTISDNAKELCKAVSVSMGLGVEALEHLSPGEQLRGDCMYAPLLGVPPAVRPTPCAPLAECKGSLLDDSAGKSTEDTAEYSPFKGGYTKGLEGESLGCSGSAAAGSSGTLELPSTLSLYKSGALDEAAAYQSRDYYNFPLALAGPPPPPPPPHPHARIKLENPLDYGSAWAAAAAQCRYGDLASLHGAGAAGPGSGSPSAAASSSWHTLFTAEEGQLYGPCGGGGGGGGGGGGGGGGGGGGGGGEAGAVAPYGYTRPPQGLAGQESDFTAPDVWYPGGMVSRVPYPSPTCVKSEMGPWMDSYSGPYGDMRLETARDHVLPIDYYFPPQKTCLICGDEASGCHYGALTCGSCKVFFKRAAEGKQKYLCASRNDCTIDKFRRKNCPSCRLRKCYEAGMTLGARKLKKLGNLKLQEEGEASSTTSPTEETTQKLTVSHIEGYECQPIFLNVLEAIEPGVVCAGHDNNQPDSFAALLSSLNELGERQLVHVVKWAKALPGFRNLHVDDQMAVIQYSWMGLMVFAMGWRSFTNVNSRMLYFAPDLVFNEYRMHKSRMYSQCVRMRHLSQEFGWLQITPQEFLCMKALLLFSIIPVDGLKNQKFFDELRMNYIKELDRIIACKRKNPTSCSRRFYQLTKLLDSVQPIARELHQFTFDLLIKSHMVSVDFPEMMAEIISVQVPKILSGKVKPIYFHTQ
T1 sequence (P10275 1-920) 2: T1 sequence (P10275 1-920) 1

human AR [2] = target: T1, human AR; experiment: AR2 assay, antagonist mode: disruption of R1881 (10 nM)-induced AR homodimerization in HepG2-AR2 cells; assay type: cell-based; conditions: spid AR_antagonist, sheet antagonist_fits

Compound	max_med (maximum median response) (AR2 cells (HepG2-AR2))	hill_tp (Hill model top) (AR2 cells (HepG2-AR2))	also measured
Cc1c(COC(=O)[C@@H]2[C@H](/C=C(\Cl)C(F)(F)F)C2(C)C)cccc1-c1ccccc1 (racemic) [Bifenthrin]	19.5548	23.386	–
O=C(c1ccccc1)c1ccc(O)cc1O [2,4-Dihydroxybenzophenone]	13.9578	7.468	–
CCCCC(CC)COC(=O)c1ccc(O)cc1 (stereo not drawn) [2-Ethylhexylparaben]	99.7953	102.21	–
O=S(=O)(c1ccc(O)cc1)c1ccc(O)cc1 [4,4'-Sulfonyldiphenol]	24.7063	39.4827	–
CCC(C)(C)c1ccc(O)cc1 [4-(2-Methylbutan-2-yl)phenol]	17.1743	12.5636	–
CCCCCCCCCCCCc1ccc(O)cc1 [4-Dodecylphenol]	99.7202	99.8404	–
O=C(O)c1ccc(O)cc1 [4-Hydroxybenzoic acid]	5.145	0	–
CCCCCCCCCc1ccc(O)cc1 [4-Nonylphenol]	99.78	100.689	–
C#C[C@]1(O)CC[C@H]2[C@@H]3CCc4cc(O)ccc4[C@H]3CC[C@@]21C [17alpha-Ethinylestradiol]	47.5761	60.3321	–
C[C@]12CC[C@@H]3c4ccc(O)cc4CC[C@H]3[C@@H]1CC[C@@H]2O [17beta-Estradiol]	11.6181	15.1874	–
COP(=O)(NC(C)=O)SC (stereo not drawn) [Acephate]	10.7949	0	–
CC(C)(C#N)c1cc(Cn2cncn2)cc(C(C)(C)C#N)c1 [Anastrozole]	9.832	0	–
CCCCN(CC)c1c([N+](=O)[O-])cc(C(F)(F)F)cc1[N+](=O)[O-] [Benfluralin]	17.0663	11.4566	–
CCCCC(CC)COC(=O)CCCCC(=O)OCC(CC)CCCC (stereo not drawn) [Bis(2-ethylhexyl)hexanedioate]	8.67	0	–
CCCCC(CC)COC(=O)c1ccccc1C(=O)OCC(CC)CCCC (stereo not drawn) [Bis(2-ethylhexyl)phthalate]	27.6798	16.491	–
N#Cc1c(Cl)c(Cl)c(Cl)c(C#N)c1Cl [Chlorothalonil]	85.6054	117.241	–
COP(=S)(OC)Oc1nc(Cl)c(Cl)cc1Cl [Chlorpyrifos-methyl]	15.7636	36.973	–
CCN(CC)CCOc1ccc(C(=C(Cl)c2ccccc2)c2ccccc2)cc1 [Clomiphene citrate]	99.676	104.376	max_med (human AR [1]): -0.008157; max_med (maximum median response) (human AR [2]): 103.883; win_model (winning concentration-response model) (human AR [2]): Hill; hill_gw (Hill model slope) (human AR [2]; 0 where win_model is Constant): 2.036; hill_tp (Hill model top) (human AR [2]; 0 where win_model is Constant): 106.625
C[C@]12C[C@H](O)[C@H]3[C@@H](CCC4=CC(=O)CC[C@@]43C)[C@@H]1CC[C@@H]2C(=O)CO [Corticosterone]	-0.2958	–	–
O=c1oc2cc(O)ccc2c2oc3cc(O)ccc3c12 [Coumestrol]	39.9111	51.0591	–
C#C[C@]1(O)CC[C@H]2[C@@H]3CCC4=Cc5oncc5C[C@]4(C)[C@H]3CC[C@@]21C [Danazol]	99.6979	119.707	–
CCOP(=S)(OCC)Oc1cc(C)nc(C(C)C)n1 [Diazinon]	6.875	0	–
O=C1C(Cl)=C(Cl)C(=O)c2ccccc21 [Dichlone, dichlone]	100	121.536	–
Clc1ccc(C(c2ccc(Cl)cc2)C(Cl)(Cl)Cl)cc1 [Dichlorodiphenyltrichloroethane]	73.7925	94.5035	–
O=C(OC1CCCCC1)c1ccccc1C(=O)OC1CCCCC1 [Dicyclohexyl phthalate]	-2.0313	–	–

Compound	max_med (maximum median response) (AR2 cells (HepG2-AR2))	hill_tp (Hill model top) (AR2 cells (HepG2-AR2))	also measured
CC/C(=C(/CC)c1ccc(O)cc1)c1ccc(O)cc1 [Diethylstilbestrol]	99.7753	119.773	–
CCCCCCOC(=O)c1ccccc1C(=O)OCCCCCC [Dihexyl phthalate]	14.953	18.2229	–
CCCCCOC(=O)c1ccccc1C(=O)OCCCCC [Dipentyl phthalate]	14.047	13.5743	–
CC(C)[C@H](C(=O)O[C@H](C#N)c1cccc(Oc2ccccc2)c1)c1ccc(Cl)cc1 [Esfenvalerate]	-0.2527	–	–
COP(=S)(OC)Oc1ccc(SC)c(C)c1 [Fenthion]	20.1632	17.5948	–
CC(C)C(C(=O)OC(C#N)c1cccc(Oc2ccccc2)c1)c1ccc(Cl)cc1 (stereo not drawn) [Fenvalerate]	17.5112	13.0316	–
CC(C)Oc1cccc(NC(=O)c2ccccc2C(F)(F)F)c1 [Flutolanil]	9.82	12.8643	–
CCCCCC(=O)O[C@]1(C(C)=O)CC[C@H]2[C@@H]3CCC4=CC(=O)CC[C@]4(C)[C@H]3CC[C@@]21C [Hydroxyprogesterone caproate]	-5.885	–	–
O=c1c(O)c(-c2ccc(O)cc2)oc2cc(O)cc(O)c12 [Kaempferol]	36.6036	30.9927	–
COCC(=O)N(c1c(C)cccc1C)C(C)C(=O)OC (stereo not drawn) [Metalaxyl]	11.6523	11.8758	–
CCc1cccc(C)c1N(C(=O)CCl)C(C)COC (stereo not drawn) [Metolachlor]	26.908	20.923	–
CSc1nnc(C(C)(C)C)c(=O)n1N [Metribuzin]	29.1814	43.0001	–
CCCCC(CC)COC(=O)c1ccccc1C(=O)O (stereo not drawn) [Mono(2-ethylhexyl) phthalate]	10.2899	5.023	–
C[Si]1(C)O[Si](C)(C)O[Si](C)(C)O[Si](C)(C)O1 [Octamethylcyclotetrasiloxane]	28.4969	38.8496	–
CCCCC(CC)CN1C(=O)[C@@H]2[C@H](C1=O)[C@@H]1C=C[C@H]2C1 (stereo partly drawn) [Octylbicycloheptenedicarboximide]	1.86	0	–
Oc1c(Cl)c(Cl)c(Cl)c(Cl)c1Cl [Pentachlorophenol]	53.4588	63.2778	–
CC(C)=CC1C(C(=O)OCc2cccc(Oc3ccccc3)c2)C1(C)C (stereo not drawn) [Phenothrin]	11.6591	28.3579	–
COP(=S)(OC)SCN1C(=O)c2ccccc2C1=O [Phosmet]	21.0825	27.9412	–
C#CC(C)(C)NC(=O)c1cc(Cl)cc(Cl)c1 [Propyzamide]	10.1701	0	–
O=C(c1ccc(OCCN2CCCCC2)cc1)c1c(-c2ccc(O)cc2)sc2cc(O)ccc12 [Raloxifene hydrochloride]	99.7657	–	–
CC(C)(C)C(O)(CCc1ccc(Cl)cc1)Cn1cncn1 (stereo not drawn) [Tebuconazole]	20.78	45.6531	–
CCC[CH2][Sn]([Cl])([CH2]CCC)[CH2]CCC [Tributylchlorostannane]	99.8606	99.7567	–
Clc1ccc(Cl)cc1 [p-Dichlorobenzene]	4.77	–	–
Abamectin	81.1222	–	–

Source: publication PMC10112521, “High-throughput AR dimerization assay identifies androgen disrupting chemicals and metabolites” (Frontiers in Toxicology, 2023)
